Drawing on paper PMC3273469, “BACE1 Inhibition Induces a Specific Cerebrospinal Fluid β-Amyloid Pattern That Identifies Drug Effects in the Central Nervous System” (PLoS ONE, 2012), this text covers IC50 for one substance.

The target in the assay is BACE1 (Homo sapiens, UniProt P56817). The experiment in a line: Cellular Aβ[…] secretion ELISA (SH-SY5Y APP695wt cells); IP-MS Aβ pattern. Type of assay: cell-based.
Chain of BACE1 (P56817 46-501): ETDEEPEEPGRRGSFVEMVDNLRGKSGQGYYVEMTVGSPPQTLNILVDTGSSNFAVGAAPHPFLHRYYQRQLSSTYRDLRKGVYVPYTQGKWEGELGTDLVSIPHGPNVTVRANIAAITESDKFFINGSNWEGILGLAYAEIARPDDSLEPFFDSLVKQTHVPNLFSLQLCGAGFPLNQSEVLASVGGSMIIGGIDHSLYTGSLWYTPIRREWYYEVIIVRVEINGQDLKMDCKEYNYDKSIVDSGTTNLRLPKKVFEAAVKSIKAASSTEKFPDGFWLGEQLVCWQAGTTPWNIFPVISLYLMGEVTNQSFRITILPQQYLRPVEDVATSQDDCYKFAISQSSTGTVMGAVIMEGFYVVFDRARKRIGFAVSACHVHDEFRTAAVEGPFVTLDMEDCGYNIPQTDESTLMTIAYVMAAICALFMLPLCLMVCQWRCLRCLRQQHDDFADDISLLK

In turn, AZ-20 yielded a 50% inhibitory concentration (IC50) of 8.2 ± 1.4 nM.
